Measurements: patent publication US10227331B2 (priority 2015, dated 2019)
Read-outs that look alike come from different tables or passages of the source.

Assays:
[1] = target: IMP-1 (Serratia marcescens, UniProt P52699); assay: biochemical; format: biochemical
How it was run: (§1)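 Fluorescence assay, CCF2-FA substrate (cephalosporin core linking 7-hydroxycoumarin to fluorescein); inhibitor + MBL + substrate, 2 h, 25° C. IC50 by 4-parameter fit, semi-log plot.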

[2] = target: NDM-1 (Klebsiella pneumoniae, UniProt C7C422); assay: biochemical; format: biochemical; details: CCF2-FA substrate, 2 hours at 25° C; read-out: NDM-1 IC50
Sequence of NDM-1 (C7C422 whole entry, looked up, species assumed): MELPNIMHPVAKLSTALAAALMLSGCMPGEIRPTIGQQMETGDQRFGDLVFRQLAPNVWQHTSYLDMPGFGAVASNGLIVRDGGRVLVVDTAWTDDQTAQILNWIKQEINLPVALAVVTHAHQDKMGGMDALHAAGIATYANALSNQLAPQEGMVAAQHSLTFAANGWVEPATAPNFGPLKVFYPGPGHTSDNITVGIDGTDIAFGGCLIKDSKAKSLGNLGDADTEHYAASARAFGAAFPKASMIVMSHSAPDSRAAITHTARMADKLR
How it was run: as §1

[3] = target: VIM-1 (Pseudomonas aeruginosa (strain ATCC 15692 / DSM 22644 / CIP 104116 / JCM 14847 / LMG 12228 / 1C / PRS 101 / PAO1), UniProt A0A0F7KYQ8); assay: biochemical; details: CCF2-FA substrate, 2 hours at 25° C
How it was run: as §1

[4] = test system: Escherichia coli expressing NDM-1 (CLB30005, CLB30016); format: cell-based; details: with imipenem 1 μg/ml, 95% inhibition of bacterial growth; for Escherichia coli MITC95: NDM-1 (CLB30016)
How it was run: (§2)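 Colonies from overnight 35 °C blood-agar cultures were suspended in saline, diluted 1:100 into 1.1× CAMHB and exposed to test compound with or without imipenem at 1 μg/ml. After 22–24 h at 35 °C, absorbance was read to find the concentration restoring imipenem susceptibility.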

[5] = test system: Klebsiella pneumoniae expressing VIM-1 (IHMA599644); format: cell-based; details: with imipenem 1 μg/ml, 95% inhibition of bacterial growth; for Klebsiella pneumoniae MITC95: VIM-1 (IHMA599644)
How it was run: as §2

[6] = test system: Serratia marcescens expressing IMP-1 (CL5741); format: cell-based; details: with imipenem 1 μg/ml, 95% inhibition of bacterial growth; for Serratia marcescens MITC95: IMP-1 (CL5741)
How it was run: as §2

[7] = test system: P. aeruginosa expressing IMP-1, efflux+ (MB9798); format: cell-based, Pseudomonas aeruginosa; details: for P. aeruginosa expressing IMP-1, efflux+ (MB9798) MITC95: imipenem at 2 μg/mL, in the presence of a class A, C, D serine β-lactamase inhibitor closely related to relebactam; for Efflux ratio: ratio MITC95 PA_9798/MITC95 PA_9799
Description: (§3) The strain background is Pseudomonas aeruginosa PAO1.

[8] = test system: P. aeruginosa expressing IMP-1, efflux− (MB9799); assay: Efflux: concentration of MBL inhibitor which restores susceptibility to imipenem; format: cell-based, Pseudomonas aeruginosa; details: imipenem at 2 μg/mL, in the presence of a class A, C, D serine β-lactamase inhibitor closely related to relebactam
Description: as §3

[9] = CCF2-FA substrate, 2 hours at 25° C, read-out: IMP-1 IC50

Sequence of IMP-1 (P52699 whole entry, looked up, species assumed): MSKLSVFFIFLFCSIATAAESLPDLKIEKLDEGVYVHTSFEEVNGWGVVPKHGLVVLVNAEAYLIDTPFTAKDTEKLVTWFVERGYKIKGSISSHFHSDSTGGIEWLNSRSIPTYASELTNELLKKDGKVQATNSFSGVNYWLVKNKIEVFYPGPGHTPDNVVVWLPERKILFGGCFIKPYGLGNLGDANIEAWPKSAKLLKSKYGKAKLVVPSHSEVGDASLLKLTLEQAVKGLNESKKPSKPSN

| SMILES | IC50 [1, 9] | IC50 [2] | IC50 [3] | Escherichia coli expressing NDM-1 (CLB30016) MITC95 [4] | Klebsiella pneumoniae expressing VIM-1 (IHMA599644) MITC95 [5] | Serratia marcescens expressing IMP-1 (CL5741) MITC95 [6] | P. aeruginosa expressing IMP-1, efflux+ (MB9798) MITC95 [7] | Efflux ratio [7] | P. aeruginosa expressing IMP-1, efflux− (MB9799) MITC95 [8] | Escherichia coli MITC95 [4] | Klebsiella pneumoniae MITC95 [5] | Serratia marcescens MITC95 [6] | IC50 [1] |
| --- | --- | --- | --- | --- | --- | --- | --- | --- | --- | --- | --- | --- | --- |
| NCCS(=O)(=O)c1ccc(-c2cnc3cccnc3c2)c(-c2nnn[nH]2)c1S(N)(=O)=O.O=C(O)C(F)(F)F [Example 134, 2-((4-(1,5-naphthyridin-3-yl)-2-sulfamoyl-3-(1H-tetrazol-5-yl)phenyl)sulfonyl)ethanaminium 2,2,2-trifluoroacetate] | 2.47 nM | 2.65 nM | 0.991 nM | 6.25 µM | 6.25 µM | 3.125 µM | 25 µM | 15.99 | 1.563 µM | – | – | – | – |
| NS(=O)(=O)c1cccc(-c2ccc(S(=O)(=O)C3CNC3)c(S(N)(=O)=O)c2-c2nn[nH]n2)c1 [Example 247, 4-(Azetidin-3-ylsulfonyl)-2-(2H-tetrazol-5-yl)-[1,1′-biphenyl]-3,3′-disulfonamide] | 3.24 nM | 2.01 nM | 1.83 nM | – | – | – | 25 µM | 15.99 | 1.563 µM | 1.563 µM | 3.125 µM | 1.563 µM | – |
| Cc1ccc(-c2ccc(S(=O)(=O)CCN)c(S(N)(=O)=O)c2-c2nn[nH]n2)c2nc(N)[nH]c12 [Example 23, 3-(2-amino-7-methyl-1H-benzo[d]imidazol-4-yl)-6-((2-aminoethyl)sulfonyl)-2-(2H-tetrazol-5-yl)benzenesulfonamide] | 0.352 nM | 0.123 nM | 0.0986 nM | 0.3906 µM | 0.7813 µM | 0.7813 µM | 0.7813 µM | 2.00 | 0.3906 µM | – | – | – | – |
| NCCS(=O)(=O)c1ccc(-c2cccc3[nH]c(C(F)(F)F)nc23)c(-c2nn[nH]n2)c1S(N)(=O)=O [Example 308, 6-((2-aminoethyl)sulfonyl)-2-(2H-tetrazol-5-yl)-3-(2-(trifluoromethyl)-1H-benzo[d]imidazol-4-yl)benzenesulfonamide] | 0.56 nM | 0.17 nM | 0.219 nM | – | – | – | 6.25 µM | 4.00 | 1.563 µM | 3.125 µM | 3.125 µM | 3.125 µM | – |
| NCCS(=O)(=O)c1ccc(-c2ccc(C(F)(F)F)c3sc(N)nc23)c(-c2nn[nH]n2)c1S(N)(=O)=O [Example 72, 3-(2-amino-7-(trifluoromethyl)benzo[d]thiazol-4-yl)-6-(2-aminoethylsulfonyl)-2-(2H-tetrazol-5-yl)benzenesulfonamide] | 0.322 nM | 0.153 nM | 0.286 nM | 0.7813 µM | 1.563 µM | 1.563 µM | 3.125 µM | 4.00 | 0.7813 µM | – | – | – | – |
| CC(C)(N)CS(=O)(=O)c1ccc(-c2cccc3sc(N)nc23)c(-c2nn[nH]n2)c1S(N)(=O)=O [Example 94, 6-(2-amino-2-methylpropylsulfonyl)-3-(2-aminobenzo[d]thiazol-4-yl)-2-(2H-tetrazol-5-yl)benzenesulfonamide] | 0.504 nM | 0.206 nM | 0.222 nM | 0.7813 µM | 3.125 µM | 1.563 µM | 3.125 µM | 2.00 | 1.563 µM | – | – | – | – |
| NCCNC(=O)c1cccc(-c2ccc(S(=O)(=O)CCN)c(S(N)(=O)=O)c2-c2nn[nH]n2)c1N [Example 378, 2-amino-N-(2-aminoethyl)-4′-((2-aminoethyl)sulfonyl)-3′-sulfamoyl-2′-(2H-tetrazol-5-yl)-[1,1′-biphenyl]-3-carboxamide] | 5.1 nM | 3.72 nM | 0.544 nM | – | – | – | 1.563 µM | 2.00 | 0.7813 µM | 0.7813 µM | 1.563 µM | 0.7813 µM | – |
| NCCCS(=O)(=O)c1ccc(-c2cccc3[nH]cnc23)c(-c2nn[nH]n2)c1S(N)(=O)=O [Example 354, 6-((3-aminopropyl)sulfonyl)-3-(1H-benzo[d]imidazol-7-yl)-2-(1H-tetrazol-5-yl) benzenesulfonamide] | 0.275 nM | 0.226 nM | 0.162 nM | – | – | – | 0.7813 µM | 1.00 | 0.7813 µM | 0.7813 µM | 1.563 µM | 0.7813 µM | – |
| NCCS(=O)(=O)c1ccc(-c2cccc3nc(N)nn23)c(-c2nn[nH]n2)c1S(N)(=O)=O [Example 225, 3-(2-amino-[1,2,4]triazolo[1,5-a]pyridin-5-yl)-6-((2-aminoethyl)sulfonyl)-2-(2H-tetrazol-5-yl)benzenesulfonamide] | 1.97 nM | 0.164 nM | 0.229 nM | 1.563 µM | 3.125 µM | 1.563 µM | 3.125 µM | 2.00 | 1.563 µM | – | – | – | – |
| NCCS(=O)(=O)c1ccc(-c2cccc3nc(N)oc23)c(-c2nn[nH]n2)c1S(N)(=O)=O [Example 74, 3-(2-aminobenzo[d]oxazol-7-yl)-6-(2-aminoethylsulfonyl)-2-(2H-tetrazol-5-yl)benzenesulfonamide] | – | 0.096 nM | 0.172 nM | 0.7813 µM | 3.125 µM | 1.563 µM | 3.125 µM | 4.00 | 0.7813 µM | – | – | – | 0.989 nM |
| Nc1nc2cccc(-c3ccc(S(=O)(=O)[C@@H]4CCNC4)c(S(N)(=O)=O)c3-c3nn[nH]n3)c2[nH]1 [Example 181, 3-(2-amino-3H-benzo[d]imidazol-4-yl)-6-((R)-pyrrolidin-3-ylsulfonyl)-2-(2H-tetrazol-5-yl)benzenesulfonamide] | 0.807 nM | 0.149 nM | 0.42 nM | 0.3203 µM | 0.8542 µM | 0.6875 µM | 0.6875 µM | 1.00 | 0.6875 µM | – | – | – | – |
